The values below come from patent publication US11596623B2, “Methods for treating virus infection or proliferation” (HOWARD UNIVERSITY, priority 2018, dated 2023).

Series [1] addresses T1, recombinant RACK1A protein (Oryza sativa subsp. japonica, UniProt Q6L4F8).
T1 construct: His tag (C); made in house; host or cells: E. coli BL21(DE3)
In words: Surface Plasmon Resonance (SPR) binding assay. Details: species or system rice. The note with it: immobilized recombinant RACK1A, KD50=kd/ka. Here is the method:
SD-29 (left panel) and SD-29-12 (right panel) were separately injected three times on the CM5 chip at 0, 1.56 μM, at 3.13 μM, 6.25 μM, 12.5 μM, 25 μM, 50 μM, and 100 μM (top sensor) concentrations (left panel) and at 3.13 μM, 6.25 μM, 12.5 μM, 25 μM, 50 μM, and 100 μM (top sensor) concentrations (right panel).
To obtain in vitro confirmation of the binding of the isolated compounds to the purified RACK1 protein, the small compound SD-29 and its structural analog SD29-12 were evaluated for their binding potential with the recombinant RACK1A proteins using the Surface Plasmon Resonance (SPR) chip. SPR experiments were carried out with a Biacore T200 equipped with a CM5 sensor chip. Briefly, recombinant RACK1A cysteine-tagged protein was immobilized on flow cell (FC) 2 in HEPES buffered saline (10 mM Hepes, pH 7.4, and 150 mM NaCl, 3 mM CaCl2)) using a thiol-coupling kit according to the manufacturer's protocol, resulting in immobilization levels of 4580 response units (RU). FC1 was only activated and inactivated and used as a reference. SD-29 stock solution was diluted to a final concentration of 100, 75, 50, 25, 10 μM and 1 μM injected in 10 mM Hepes, 150 mM NaCl, 3 mM CaCl2), 1% DMSO, and 0.5% P20. Each injection was repeated three times for 60 s. […] KD50 is calculated by the equation: KD50=kd/ka; kd—dissociation rate constant, ka—association rate constant. […]

Another series relates to HSV-1. In words: Plaque formation unit (pfu) assay. Format: cell-based. The protocol: The viral plaque assay was performed as previously described [Tang Q, Li L, Ishov A M, Revol V, Epstein A L, Maul G G. Determination of minimum herpes simplex virus type 1 components necessary to localize transcriptionally active DNA to ND10. J Virol. 2003; 77:5821-28.] with slight modifications. The HSV-1 strain 17 was diluted serially in a volume of 1 mL. Then 300 ul of the virus was added onto confluent HEp-2 cell monolayers in 12-well plates; each dilution had 3 wells. After adsorption for 2 h, the medium was removed and the cells were washed twice with serum-free DMEM and overlaid with phenol-free DMEM containing 5% FCS, 0.5% low-melting point agarose (GIBCO), and 1% penicillin-streptomycin. The cells were incubated at 37° C. for 48 hours. Neutral red was added on the agarose to stain the live cells. The plaques were counted and reported as pfu per mL. Mean pfu was determined after averaging the number of pfu from different dilutions. Student's t-tests were used to statistically analyze differences between the groups; a p-value lower than 0.005 was used as the threshold for a significant difference.
To assess the efficacy of SD-29 on the HSV-1 proliferation, a plaque assay was performed. We wanted to quantitatively assess whether SD-29 could inhibit viral replication. Because HSV-1 was able to enter cultured HEp-2 cells, we evaluated whether this entry led to productive virus replication.
In Table 1, confluent monolayers of HEp-2 cells were infected with serially diluted HSV-1 virus and were fixed and Giemsa stained at 0, 6, 12, and 24 hr post infection. The numbers of plaques were visualized. The number of plaques formed post infection decreased in the presence of SD-29 in a time-dependent manner.

In the next series the test system is RACK1A protein. The experiment in a line: RACK1 protein expression under salt stress, western blot. Type of series: in vivo. The note with it: Arabidopsis lysates. The text has this: The abundant leaf protein Rubisco large subunit (RbcL) was used as a loading control for the blot. The 37 kD RACK1 band was absent from the genetic knockout of RACK1 plants (double mutant-rack1ab lane).
The reported positive expression of RACK1A protein under salt stress condition in Arabidopsis has led us to examine the RACK1A expression in the presence and absence of the inhibitor compounds during salt stresses. We determined that the RACK1A protein expression was specifically modulated by the inhibitor compounds when the lysates with salt or without salt in the presence and absence of the small compounds were probed with an antibody raised by using the full length RACK1A protein as antigen (Agrisera, Vännäs, Sweden, FIG. 2C). […] However, whether the effect of SD29-12 is Arabidopsis salt stress specific condition needs further experimental evidence. As the antibody cross-reacts with all three RACK1 isoforms in Arabidopsis, we used the double knockout (rack1ab) as a negative control on the blot (triple mutant is lethal at the early seedling stage). The large subunit of the abundant leaf protein rubisco (RbcL) was used as loading control for this blot. As the results support the in-silico based prediction, we set out to investigate the effect of the compounds on the mammalian RACK1 based virus proliferation.

The test system of a further series is HSV-1 ICP0. In words: Real-time RT-PCR of HSV-1 ICP0 transcript in HEp-2 cells. Type of series: cell-based. As to conditions: 12 and 24 hpi, versus DMSO. The source says:
The total transcript levels were quantified using actin expression as an internal control. The cDNA obtained immediately after the virus and drug transfection(s) was set as a baseline value. The normalized expression values were transformed to the log 10 value. The data plot represents mean t standard error calculated from three replicates.
Following instructions of the manufacturers, total RNA was isolated using Tri Reagent® (Ambion, Inc., Austin, Tex.). To quantitatively examine the mRNA level of HSV-1 ICP0 from the infected cells, real-time RT-PCR was undertaken using the QuantiTect SYBR Green RT-PCR kit (QIAGEN, Valencia, Calif.). […] Fluorescence (captured at 80° C.) was determined to be absent from the signal generated by primer dimers. Data were collected and recorded by the BIORAD CFX Manager software. The relative quantity of the ICP0 transcripts at the indicated time points was normalized to the relative quantity of the reference gene actin at the same time points and then the log10 copy number of the normalized RNA transcripts were calculated and presented on a bar chart. A melting temperature curve analysis was obtained by measuring (after the amplification cycles) the fluorescence during a period of warming from 60° C. to 95° C. […]

Another series relates to HEp-2 cells. In words: Trypan blue exclusion cell viability. Type of series: cell-based. As to conditions: 24-hour treatment. The protocol: In order to assess whether the compounds are producing any toxicity that can led to the cell deaths, we evaluated the cell viability by the trypan blue exclusion method. As long-term inhibition of RACK1 expression has been reported to cell cycle arrest, we limited our experimental treatments to 24 h and evaluated the cell viability of almost full confluent cells after 24 h of compound treatment.
In table 2, the viability of cells was measured with Trypan blue exclusion assay in a Cellometer (Nexcelom, Lawrence, Mass.). The percentage survival of the compound treated cells was evaluated along with the DMSO treated cells. The values represent the mean±SE of three separate well based replicates.

The subject of a further series is HSV1-Luc (R8411). In words: HSV1-Luc bioluminescence luciferase assay in HEp-2 cells. Type of series: cell-based, HSV-1. As to conditions: 10 μM. Here is the method: (A) Hep-2 cells were incubated with the indicated compounds in the presence of HSV1-Luc virus at a concentration of 4×10^6 pfu/ml media. (B) Quantification of the luciferase signal from the samples in panel (A). Signals from three replicates from two separate experiments were combined to generate the average and the standard error bar.
(§1) To 80-90% confluent HEp-2 cells, HSV-1-Luc (R8411) are added at a concentration of 2×10e^6 pfu/ml along with indicated concentration of inhibitor compounds. After the described incubation period, luciferase activity is evaluated from bioluminescence images acquired by a Perkin Elmer IVIS Spectrum Imaging system immediately after adding luciferase substrate (D-luciferin, Gold Bio Technology) at a concentration of 400 μg/mL in medium. Bioluminescence intensity in different wells is quantified in units of photons per second per centimetre squared per steradian (p/s/cm^2/sr) by drawing a polygonal region of interest over the signals in images using Living Image 3.0 software (Caliper Life Sciences).
as §1, with “cells, HSV1-Luc” for “cells, HSV-1-Luc”, “(R8411) was” for “(R8411) are”, “activity was” for “activity is”, “wells was” for “wells is”, “per centimeter” for “per centimetre”
To visualize the effect of the drugs on the proliferation of HSV-1, a luciferase tagged HSV-1 F strain expressing luciferase (R8411 mutant) under the control of ICP27 promoter was obtained [Horsburgh B C, Hubinette M M, Tufaro F. Genetic manipulation of herpes simplex virus using bacterial artificial chromosomes. Methods Enzymol. 1999; 306:337-52]. […] The same samples after incubation of 48 h were used to assay for HSV-1 ICP0 and RACK1 protein expression (B of FIG. 5). Depletion of RACK1 by the compounds correlated with the depletion of the viral ICP0 protein confirming earlier results shown in B of FIG. 3.

The structures appear in SMILES notation.

T1 sequence (Q6L4F8 whole entry): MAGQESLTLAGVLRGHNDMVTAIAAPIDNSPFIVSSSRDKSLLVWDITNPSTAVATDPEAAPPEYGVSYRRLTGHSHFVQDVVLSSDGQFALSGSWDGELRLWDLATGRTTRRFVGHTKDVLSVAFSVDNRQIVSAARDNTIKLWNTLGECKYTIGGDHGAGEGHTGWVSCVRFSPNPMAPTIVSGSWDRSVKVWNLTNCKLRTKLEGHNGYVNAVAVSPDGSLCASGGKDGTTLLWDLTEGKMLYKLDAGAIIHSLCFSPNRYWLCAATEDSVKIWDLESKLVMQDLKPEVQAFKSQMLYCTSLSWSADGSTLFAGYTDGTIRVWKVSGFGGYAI

Turning to `COc1ccc(-c2nnc(SCC(=O)O)n2N)cc1` [SD29-12], the equilibrium dissociation constant (Kd) in series [1] worked out at 58 µM. Further, the Plaque formation unit in the series on HSV-1 (0 hpi) is 0 ± 0 PFU/mL; in the series with HSV-1 (6 hpi), 3.8 ± 0.07 × 10^2 PFU/mL; with HSV-1 (12 hpi), 3.6 ± 0.04 × 10^3 PFU/mL; in the series on HSV-1 (24 hpi), 2.6 ± 0.03 × 10^6 PFU/mL. Besides, the “RACK1 protein expression under salt stress” value with RACK1A protein is “not”. In addition, the “ICP0 mRNA level” value with HSV-1 ICP0 is “essentially showed the same level of ICP0 mRNA”. Also, the figures for the “HEp-2 Cell viability, Mean” value in the series with HEp-2 cells (10 μM) and in the series on HEp-2 cells (100 μM) were 92.7% and 97.7%, respectively.
On to `Nc1nc2c(ncn2COCCO)c(=O)[nH]1` [acyclovir, reference compound], for which the HSV1-Luc proliferation result in the series on HSV1-Luc (R8411) is “showed inhibition of the HSV1-Luc proliferation”.
